Laboratory results reported in ChEMBL document CHEMBL4706637, “Design, synthesis and biological evaluation of thioether-containing lenalidomide and pomalidomide derivatives with anti-multiple myeloma activity” (Eur J Med Chem, 2021).
One block for each compound: values may come before it. Activity calls are given as the source filed them. No cut-off for these calls is given here.

How the values were obtained:
[1] = target: DNA-binding protein Ikaros (Homo sapiens) (UniProt Q13422); experiment: Induction of IKZF1 degradation in human MM1.S cells assessed as reduction in IKZF1 level incubated for 12 hrs by immunoblot analysis; assay type: cell-based; details: dose 0.02-2 µM
Sequence of DNA-binding protein Ikaros (Homo sapiens) (Q13422 whole entry): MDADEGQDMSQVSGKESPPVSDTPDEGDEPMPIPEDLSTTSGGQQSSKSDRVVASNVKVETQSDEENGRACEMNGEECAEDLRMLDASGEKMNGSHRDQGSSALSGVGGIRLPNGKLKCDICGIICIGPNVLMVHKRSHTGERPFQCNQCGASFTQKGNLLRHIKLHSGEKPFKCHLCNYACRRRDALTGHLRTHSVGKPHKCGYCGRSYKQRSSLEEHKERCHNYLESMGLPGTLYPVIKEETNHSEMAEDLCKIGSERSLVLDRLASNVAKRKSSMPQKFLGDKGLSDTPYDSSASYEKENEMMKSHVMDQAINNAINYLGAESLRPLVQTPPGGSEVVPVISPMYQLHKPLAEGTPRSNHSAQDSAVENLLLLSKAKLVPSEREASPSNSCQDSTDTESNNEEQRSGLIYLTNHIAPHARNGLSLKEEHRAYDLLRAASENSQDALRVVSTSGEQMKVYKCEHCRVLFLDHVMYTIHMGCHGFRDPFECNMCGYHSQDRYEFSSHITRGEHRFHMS

[2] = target: Zinc finger protein Aiolos (Homo sapiens) (UniProt Q9UKT9); experiment: Induction of IKZF3 degradation in human MM1.S cells assessed as reduction in IKZF3 level incubated for 12 hrs by immunoblot analysis; assay type: cell-based; details: dose 0.02-2 µM
Sequence of Zinc finger protein Aiolos (Homo sapiens) (Q9UKT9 whole entry): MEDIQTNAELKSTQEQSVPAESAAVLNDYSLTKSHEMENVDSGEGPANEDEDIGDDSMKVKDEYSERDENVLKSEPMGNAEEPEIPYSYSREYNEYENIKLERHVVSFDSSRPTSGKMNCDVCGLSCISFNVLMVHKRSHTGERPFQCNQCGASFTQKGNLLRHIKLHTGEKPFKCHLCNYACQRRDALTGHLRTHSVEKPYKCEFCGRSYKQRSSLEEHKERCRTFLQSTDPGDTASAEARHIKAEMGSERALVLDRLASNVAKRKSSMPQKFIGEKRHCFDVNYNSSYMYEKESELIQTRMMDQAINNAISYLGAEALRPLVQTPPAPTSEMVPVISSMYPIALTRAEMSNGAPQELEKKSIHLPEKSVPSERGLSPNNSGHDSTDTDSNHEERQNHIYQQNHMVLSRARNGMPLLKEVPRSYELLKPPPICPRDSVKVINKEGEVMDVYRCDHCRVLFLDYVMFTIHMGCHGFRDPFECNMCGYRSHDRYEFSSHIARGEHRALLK

MM1.S [3] = experiment: Antiproliferative activity against human MM1.S cells assessed as reduction in cell growth measured after 7 days culturing by CellTiter 96 Aqueous non-radioactive cell proliferation assay; assay type: functional, cell-based; details: 168 h
[4] = Half-life in human liver microsomes; assay type: ADME, Microsome
[5] = Intrinsic clearance in human liver microsomes measured per gm of protein; assay type: ADME, Microsome
[6] = Intrinsic clearance in human; assay type: ADME
[7] = Hepatic intrinsic clearance in human; assay type: ADME
[8] = Metabolic stability in human liver microsomes assessed as parent compound remaining; assay type: ADME, Microsome
MM1.S [9] = experiment: Antitumor activity against human MM1.S cells xenografted in CB17-SCID mouse assessed as reduction in tumor weight at 60 mg/kg, po qd for 14 days and measured after 14 days; assay type: functional; details: 336 h, time 14 day
[10] = target: DNA-binding protein Ikaros (Homo sapiens) (UniProt Q13422); experiment: Induction of IKZF1 degradation in human MM1.S cells assessed as reduction in IKZF1 level at 0.02 to 2 uM incubated for 12 hrs by immunoblot analysis; assay type: cell-based; details: dose 0.02-2 µM
[11] = target: Zinc finger protein Aiolos (Homo sapiens) (UniProt Q9UKT9); experiment: Induction of IKZF3 degradation in human MM1.S cells assessed as reduction in IKZF3 level at 0.02 to 2 uM incubated for 12 hrs by immunoblot analysis; assay type: cell-based; details: dose 0.02-2 µM

Activity [1]: Dose-dependent effect | Activity [2]: Dose-dependent effect
Compound: COc1ccccc1Sc1cccc2c1CN(C1CCC(=O)NC1=O)C2=O (stereo unspecified)

IC50 (MM1.S [3]): 81 nM | half-life [4]: 19.3 h | CLH [5]: 1.8 mL/min/g | CL [6]: 138.7 mL/min | CLH [7]: 127 mL/min | Stabilty [8]: 91.5%
Compound: Nc1cccc2c1CN(C1CCC(=O)NC1=O)C2=O (stereo unspecified) [LENALIDOMIDE]
inhibition in vivo at 60 mg/kg/day (MM1.S [9]): 62.6%

Activity [10]: Active | Activity [11]: Active
Compound: O=C1CCC(N2Cc3c(Sc4ccc(F)cc4)cccc3C2=O)C(=O)N1 (stereo unspecified)
